{"source": "the METLIN SMRT retention time set (Domingo-Almenara et al. 2019)"}
{"experiment": "gradient 5% acetonitrile 3 min, to 50% in 2 min, to 85% in 15 min, held 3 min, 100 µL/min", "details": "column: Zorbax Extend-C18 2.1 x 50 mm; eluents: water / acetonitrile, 0.1% formic acid", "procedure,_shortened": "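Using water and acetonitrile that each contained 0.1% formic acid, mixtures of ~100 pure standards were separated at 100 μL/min on a Zorbax Extend-C18 column (2.1 × 50 mm, 1.8 μm). The HPLC fed a quadrupole time-of-flight mass spectrometer working in positive and negative ionization mode, with dead and dwell volumes of 40 μL and 900 μL. Data were acquired over 3 months. Retention time was read from computationally picked adduct peaks after manual inspection of each.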", "units": {"RP-LC retention time": "s"}}
{"smiles": "O=C(Nc1cccnc1)C1CCCN(S(=O)(=O)c2c[nH]c(C(=O)N3CCCC3)c2)C1", "note": "(centres undefined)", "RP-LC retention time": 594}
{"smiles": "c1ccc(-c2n[nH]c(C3CCCCN3)n2)cc1", "note": "(centres undefined)", "RP-LC retention time": 574}
{"smiles": "CC(C)CN(Cc1cccnc1)C1CN(S(=O)(=O)Cc2ccccc2)C1", "RP-LC retention time": 719}
{"smiles": "CCc1csc(-c2ccc(N3CCN(C(=O)Cc4ccc(F)cc4)CC3)nc2)n1", "RP-LC retention time": 925}
{"smiles": "CCCN(CC1CCOC1)C(=O)Nc1cc(F)cc(F)c1", "note": "(centres undefined)", "RP-LC retention time": 871}
{"smiles": "Cc1ccc(-c2noc(C3CC(=O)N(c4ccc5c(c4)OCO5)C3)n2)cc1", "note": "(centres undefined)", "RP-LC retention time": 955}
{"smiles": "CN1C(=O)[C@H]2CN(Cc3ccc(F)c(Cl)c3)C[C@H]2C1=O", "RP-LC retention time": 623}
{"smiles": "CCc1ccc(N2CC(c3noc(-c4cccc(Cl)c4)n3)CC2=O)cc1", "note": "(centres undefined)", "RP-LC retention time": 1200}
{"smiles": "CCN(CC)S(=O)(=O)N1CCC(C(=O)Nc2ccc3sc(NC(=O)C(C)C)nc3c2)CC1", "RP-LC retention time": 854}
{"smiles": "O=C(NCc1csc(C2CCN(C(=O)c3ccc(Cl)cc3)CC2)n1)C1CCC1", "RP-LC retention time": 761}
{"smiles": "COc1cccc(C(=O)N2CCN(c3ccc(=O)n(-c4ccc(Cl)cc4)n3)CC2)c1", "RP-LC retention time": 853}
{"smiles": "Cc1cc(SCC(=O)Nc2ccccc2Br)nc(-c2ccc(F)cc2)n1", "RP-LC retention time": 1170}
{"smiles": "CC(=O)N1CCCC1c1nc(C2CN(C(=O)NCc3ccco3)C2)no1", "note": "(centres undefined)", "RP-LC retention time": 617}
{"smiles": "O=C(Cc1cccs1)N1CCCCC1c1nncn1-c1ccccc1", "note": "(centres undefined)", "RP-LC retention time": 712}
{"smiles": "CCn1cc(-c2ccc(F)cc2)cc1C(=O)NC1CC1", "RP-LC retention time": 917}
{"smiles": "CCn1ccc(C(=O)N2CC(c3nc(C4CC4)nn3C)C2)n1", "RP-LC retention time": 610}
{"smiles": "COc1ccc(N2CCN(c3cc(SCC(=O)Nc4cccc(Cl)c4)ncn3)CC2)cc1", "RP-LC retention time": 1030}
{"smiles": "Cc1cc(F)ccc1NC(=O)C1CCCN(c2nc3c(s2)c(C)nn3-c2ccccc2)C1", "note": "(centres undefined)", "RP-LC retention time": 1140}
{"smiles": "COc1ccc2[nH]cc(CCNC(=O)C(C)C3CCN(S(=O)(=O)c4c(C)noc4C)CC3)c2c1", "note": "(centres undefined)", "RP-LC retention time": 831}
{"smiles": "Cc1cccc(C)c1OCC(O)Cn1c(C2CC2)nc2ccccc21", "note": "(centres undefined)", "RP-LC retention time": 710}
{"smiles": "O=C(c1ccc(CN2C(=O)CCn3nc(-c4ccccc4)cc32)cc1)N1CCN(c2ccccn2)CC1", "RP-LC retention time": 638}
{"smiles": "COc1ccc(NC(=O)C2CCN(c3nnc4cccc(C)n34)CC2)cc1Cl", "RP-LC retention time": 700}
{"smiles": "Cc1c(C2CCN(C(=O)NCCc3ccccc3)CC2)noc1N", "RP-LC retention time": 700}
{"smiles": "Cc1ccc(-n2c(N3CCCC(C(=O)NCC4CC4)C3)nc3ccsc3c2=O)cc1", "note": "(centres undefined)", "RP-LC retention time": 805}
{"smiles": "COc1cccc(CNC(=O)NC2CCN(c3cc(C)cc(C)c3)C2=O)c1", "note": "(centres undefined)", "RP-LC retention time": 840}
{"smiles": "Cc1nc(OCC(=O)Nc2ccc(Br)cc2F)c2ccccc2n1", "RP-LC retention time": 820}
{"smiles": "O=C(CN1CC=C(c2cnn(-c3ccccc3)c2)CC1)N1CCN(c2ccccc2F)CC1", "RP-LC retention time": 732}
{"smiles": "CC(C)Cn1cc(CCNS(=O)(=O)c2ccc(C(C)C)cc2)c2cccnc21", "RP-LC retention time": 1110}
{"smiles": "OC(CN1CCN(c2cccc(Cl)c2)CC1)C(c1ccccc1)c1ccccc1", "note": "(centres undefined)", "RP-LC retention time": 885}
{"smiles": "CCS(=O)(=O)N1CC(=O)N(c2ccc(F)cc2C)C(C)(C(=O)NC2CCCCCC2)C1", "note": "(centres undefined)", "RP-LC retention time": 925}
{"smiles": "N#Cc1cccc(C(=O)N2CCOc3ccccc32)c1", "RP-LC retention time": 843}
{"smiles": "COCCC(=O)N1CCCN(C2=NS(=O)(=O)C(c3ccccc3)=C2C)CC1", "RP-LC retention time": 669}
{"smiles": "COc1ccccc1NC(=O)CSc1ncc(S(=O)(=O)c2ccccc2)c(N)n1", "RP-LC retention time": 790}
{"smiles": "O=C1C(c2cccnc2)N(Cc2ccco2)C(=O)CN1c1ccccc1", "note": "(centres undefined)", "RP-LC retention time": 619}
{"smiles": "CCCNC(=O)CN1C(=O)C2CCCCN2c2ccc(S(=O)(=O)N3CCCC3)cc21", "note": "(centres undefined)", "RP-LC retention time": 800}
{"smiles": "CCCC(C)NC(=O)CN1c2ccc(F)cc2-c2ccccc2S1(=O)=O", "note": "(centres undefined)", "RP-LC retention time": 950}
{"smiles": "O=C(Cn1ncc2c(N3CCN(c4ccccn4)CC3)ncnc21)Nc1ccc(F)c(Cl)c1", "RP-LC retention time": 650}
{"smiles": "Cc1cccc(OCc2nc(CCN(C)C(=O)Nc3ccccc3C)no2)c1", "RP-LC retention time": 919}
{"smiles": "O=[N+]([O-])c1ccccc1OCC(O)CN1CCN(c2ccccc2F)CC1", "note": "(centres undefined)", "RP-LC retention time": 577}
{"smiles": "COC(=O)c1cc(OCC(=O)Nc2ccccc2F)c2cc(F)ccc2n1", "RP-LC retention time": 857}
{"smiles": "CCCCNC(=O)C1CCCN(C(=O)Nc2ccc(NC(=O)NC3CCCC3)cc2)C1", "note": "(centres undefined)", "RP-LC retention time": 728}
{"smiles": "COc1ccc(C(=O)N2CCC3(C2)C(=O)N(C)c2ccccc23)cc1", "note": "(centres undefined)", "RP-LC retention time": 743}
{"smiles": "COCCCNC(=O)C1CCCN(c2cnc3nccnc3c2)C1", "note": "(centres undefined)", "RP-LC retention time": 602}
{"smiles": "c1ccc2c(c1)cnc1ccccc12", "RP-LC retention time": 710}
{"smiles": "O=c1ccc(-c2ccc3c(c2)OCO3)nn1CCc1nc(-c2ccccc2Cl)no1", "RP-LC retention time": 966}
{"smiles": "Cc1ccc(C)c(N2CCN(C(=O)c3cc(C)n4nccc4n3)CC2)c1", "RP-LC retention time": 986}
{"smiles": "CCOC(=O)c1noc2ncnc(Nc3ccc(C)c(C)c3)c12", "RP-LC retention time": 1070}
{"smiles": "O=C(Nc1ccccc1)N1CCC(n2c(-c3ccco3)nc3cccnc32)C1", "note": "(centres undefined)", "RP-LC retention time": 716}
{"smiles": "Cc1ccc(C)c(N2CCN(C(=O)c3cn(-c4ccc(NC(=O)C5CC5)cn4)cn3)CC2)c1", "RP-LC retention time": 900}
{"smiles": "CCn1cc(-c2ccc(Cl)cc2)cc1C(=O)N(C)C", "RP-LC retention time": 957}
{"smiles": "CC(C)CCNC(=O)C1CCCN(C(=O)Nc2ccc(NC(=O)NC3CCCC3)cc2)C1", "note": "(centres undefined)", "RP-LC retention time": 762}
{"smiles": "Cn1cc(CCN2CCN(S(=O)(=O)c3ccc(F)c(Cl)c3)CC2)c2cccnc21", "RP-LC retention time": 660}
{"smiles": "Cc1nc(C)c(C(=O)N/N=C/c2ccc(N(CCCl)CCCl)cc2)s1", "RP-LC retention time": 942}
{"smiles": "COc1ccc(OC)c(COCC(O)CN2CCc3cc(OC)c(OC)cc3C2)c1", "note": "(centres undefined)", "RP-LC retention time": 575}
{"smiles": "COC(=O)c1ccc2c(=O)n(-c3cccc(C)c3)c(N3CCN(c4ccccn4)CC3)nc2c1", "RP-LC retention time": 726}
{"smiles": "COc1ccccc1C1(CNC(=O)c2ccco2)CCOCC1", "RP-LC retention time": 709}
{"smiles": "COc1ccc(S(=O)(=O)N2CCC(C(=O)NCc3csc(-c4ccccc4)n3)CC2)cc1", "RP-LC retention time": 885}
{"smiles": "COc1ccc(NC(=O)c2cc3c(s2)CN(C2CC2)C3)c(C)c1", "RP-LC retention time": 783}
{"smiles": "Cc1ccccc1NS(=O)(=O)c1ccc2c(c1)CCCC(=O)N2", "RP-LC retention time": 725}
{"smiles": "CN(C)CCCNC(=O)C1CCN(c2nc3ccc(-c4ccc(F)cc4)nc3s2)CC1", "RP-LC retention time": 686}
{"smiles": "O=C([C@@H]1C[C@H](F)CN1S(=O)(=O)c1cc(F)cc(F)c1)N1CCc2ccccc2C1", "RP-LC retention time": 961}
{"smiles": "O=C(NCC1CCN(c2ncccn2)CC1)c1ccc(Br)o1", "RP-LC retention time": 647}
{"smiles": "CCC(C)NC(=O)C1c2cc(OC)c(OC)cc2C(=O)N(C)C1c1ccc(OC)c(OC)c1", "note": "(centres undefined)", "RP-LC retention time": 710}
{"smiles": "Cc1cc(N2CCN(C)CC2)nc2ccc(NC(=O)Nc3ccc4c(c3)OCCO4)cc12", "RP-LC retention time": 580}
{"smiles": "O=C(Nc1cccc(F)c1)C1CCCN(S(=O)(=O)c2c[nH]c(C(=O)N3CCCCCC3)c2)C1", "note": "(centres undefined)", "RP-LC retention time": 919}
{"smiles": "CCn1c(=O)c(N2CCN(S(=O)(=O)c3ccc(Cl)s3)CC2)nc2ccncc21", "RP-LC retention time": 739}
{"smiles": "O=C(Nc1cccc([N+](=O)[O-])c1)NC1CCS(=O)(=O)C1", "note": "(centres undefined)", "RP-LC retention time": 626}
{"smiles": "Cn1c(=O)c2cc(C(=O)Nc3ccccc3)cnc2n(-c2ccc(F)cc2)c1=O", "RP-LC retention time": 885}
{"smiles": "CCOc1ccc(NS(=O)(=O)c2cc(C(=O)N3CCN(c4ccccc4F)CC3)n[nH]2)cc1", "RP-LC retention time": 922}
{"smiles": "COC(=O)C1CN(c2ccc(OC)cc2)N=C1C(C)=O", "note": "(centres undefined)", "RP-LC retention time": 850}
{"smiles": "Cc1ccc(CCNC(=O)c2cc3n(n2)CC(C)(C(=O)NC2CCCCC2)N(C)C3=O)cc1", "note": "(centres undefined)", "RP-LC retention time": 844}
{"smiles": "O=C(c1cc(-c2ccncc2)n[nH]1)N1CCCC(C(=O)N2CC=C(c3ccccc3)CC2)C1", "note": "(centres undefined)", "RP-LC retention time": 648}
{"smiles": "O=C(c1ccco1)N1CCCC1c1nc(-c2ccc(F)cc2)no1", "note": "(centres undefined)", "RP-LC retention time": 875}
{"smiles": "CCc1nn2c(CNC(=O)c3cccn3C)c(-c3ccccc3)nc2s1", "RP-LC retention time": 882}
{"smiles": "O=C(Cc1ccccc1F)N1CCC(c2nc(-c3ccccc3)no2)C1", "note": "(centres undefined)", "RP-LC retention time": 922}
{"smiles": "CCCN(CC1CCOC1)C(=O)Nc1cccc(Cl)c1", "note": "(centres undefined)", "RP-LC retention time": 827}
{"smiles": "COc1ccccc1NC(=O)Cn1c2ccccc2n2c(=O)cc(-c3ccc(F)cc3)nc12", "RP-LC retention time": 1010}
{"smiles": "Cn1nc(C(=O)N2CCCC(C(=O)Nc3ccccc3)C2)c2c1CCN(C(=O)c1ccco1)C2", "note": "(centres undefined)", "RP-LC retention time": 717}
{"smiles": "Cc1nnsc1C(=O)Nc1nnc(SCC(=O)Nc2ccc(F)c(Cl)c2)s1", "RP-LC retention time": 813}
{"smiles": "Cc1cc(=O)n(CC(=O)N(C)c2ccccc2)c(N2CCCCC2)n1", "RP-LC retention time": 669}
{"smiles": "O=C(Nc1cnc(-c2cccc(Cl)c2)nc1)c1ccccc1", "RP-LC retention time": 1070}
{"smiles": "CCc1nccn1Cc1nc(-c2cccc(F)c2)no1", "RP-LC retention time": 625}
{"smiles": "COc1cc(NC(=O)N2CCc3cn(C)c4cccc(c34)C2)cc(OC)c1", "RP-LC retention time": 713}
{"smiles": "COc1ccccc1CNC1=NCCNC12CCN(S(=O)(=O)c1ccc(C)cc1)CC2", "RP-LC retention time": 743}
{"smiles": "COc1ccc(C2Cn3nnc(-c4nc(-c5ccccc5F)no4)c3CO2)cc1", "note": "(centres undefined)", "RP-LC retention time": 1090}
{"smiles": "O=C1CN(S(=O)(=O)c2cc(F)ccc2F)C2(CCCCC2)CN1CC1CC1", "RP-LC retention time": 959}
{"smiles": "CCOC(=O)c1cc(S(=O)(=O)N2CCCC2C(=O)NC2CCC(C)CC2)cn1C", "note": "(centres undefined)", "RP-LC retention time": 966}
{"smiles": "COc1cccc(CNC(=O)Cn2c(C)cc(-c3nnc(C4CCC4)o3)c2C)c1", "RP-LC retention time": 834}
{"smiles": "CCC(C(=O)NCCOc1ccc2nnc(-c3ccc(OC)cc3)n2n1)c1ccccc1", "note": "(centres undefined)", "RP-LC retention time": 735}
